We go through 5 compounds from ChEMBL document CHEMBL1201862, “PubChem BioAssay data set” (2004).

The target of one test is Troponin, cardiac muscle (Homo sapiens, UniProt P19429+P45379+P63316). The test is described as follows: Fluorescence-based biochemical high throughput dose response assay for activators of the calcium sensitivity of cardiac Regulated Thin Filaments (RTF). [Related pubchem assays (depositor defined):AID493008, AID493018, AID504382, AID504383]. The format is protein-complex assay.

Test [1] concerns the target T1, Heat shock factor protein 1 (Mus musculus, UniProt P38532).
T1 sequence (P38532 whole entry): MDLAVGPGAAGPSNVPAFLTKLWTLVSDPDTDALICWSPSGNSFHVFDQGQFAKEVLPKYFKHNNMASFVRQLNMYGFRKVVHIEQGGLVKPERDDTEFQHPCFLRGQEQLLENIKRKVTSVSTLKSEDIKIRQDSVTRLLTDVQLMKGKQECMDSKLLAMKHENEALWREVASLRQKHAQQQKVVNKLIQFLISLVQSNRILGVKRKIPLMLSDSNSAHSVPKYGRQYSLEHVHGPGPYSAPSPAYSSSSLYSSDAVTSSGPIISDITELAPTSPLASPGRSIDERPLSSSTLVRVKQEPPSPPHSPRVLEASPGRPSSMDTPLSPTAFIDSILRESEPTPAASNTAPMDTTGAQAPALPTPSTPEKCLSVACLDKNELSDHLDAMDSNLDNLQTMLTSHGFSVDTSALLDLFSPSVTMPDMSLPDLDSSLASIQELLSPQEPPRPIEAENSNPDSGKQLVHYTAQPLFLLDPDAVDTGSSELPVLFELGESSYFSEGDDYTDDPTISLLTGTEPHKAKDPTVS
The test is described as follows: decrease of HSF1-responsive luciferase luminescence – cell-based, NIH3T3, dose retest, confirmation (AID 2382).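 Further: NIH3T3 fibroblasts with HSF1-driven luciferase reporter stressed by proteasome inhibitor MG132; luminescence from HSF1-driven luciferase expression after 8 hours of MG132 stress.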 Format: functional.

For test [2], the target named is DNA dC->dU-editing enzyme APOBEC-3G (Homo sapiens, UniProt Q9HC16). The format is functional.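 Further: Dose-response counterscreen measuring inhibition of APOBEC3G DNA deaminase activity, run while confirming APOBEC3A inhibitors.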
Sequence of DNA dC->dU-editing enzyme APOBEC-3G (Q9HC16 whole entry): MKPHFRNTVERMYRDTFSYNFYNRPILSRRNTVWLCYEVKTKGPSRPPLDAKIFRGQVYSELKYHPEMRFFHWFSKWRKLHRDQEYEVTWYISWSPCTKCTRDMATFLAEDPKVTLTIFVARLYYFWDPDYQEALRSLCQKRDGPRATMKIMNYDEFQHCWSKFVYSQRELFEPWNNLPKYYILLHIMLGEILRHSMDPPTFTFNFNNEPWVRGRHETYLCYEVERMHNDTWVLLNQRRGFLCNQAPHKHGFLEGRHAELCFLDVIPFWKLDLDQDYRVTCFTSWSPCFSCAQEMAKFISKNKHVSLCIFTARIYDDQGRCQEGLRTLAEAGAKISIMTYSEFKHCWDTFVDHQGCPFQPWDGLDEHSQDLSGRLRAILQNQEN
The target in test [3] is DNA dC->dU-editing enzyme APOBEC-3A (Homo sapiens, UniProt P31941). The test is described as follows: Dose Response confirmation of small molecule APOBEC3A DNA Deaminase Inhibitors via a fluorescence-based single-stranded DNA deaminase assay. [Related pubchem assays (depositor defined):AID493011, AID493024]. Format: functional.
Sequence of DNA dC->dU-editing enzyme APOBEC-3A (P31941 whole entry, the tested form may be a part): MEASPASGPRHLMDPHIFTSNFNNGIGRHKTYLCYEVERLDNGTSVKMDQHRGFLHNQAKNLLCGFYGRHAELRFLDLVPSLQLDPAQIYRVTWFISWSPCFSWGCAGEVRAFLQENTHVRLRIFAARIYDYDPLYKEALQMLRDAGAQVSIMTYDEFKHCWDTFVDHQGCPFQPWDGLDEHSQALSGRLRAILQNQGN
Test [4] concerns the target T2, Carboxy-terminal domain RNA polymerase II polypeptide A small phosphatase 1 (Homo sapiens, UniProt Q9GZU7).
T2 sequence (Q9GZU7 whole entry): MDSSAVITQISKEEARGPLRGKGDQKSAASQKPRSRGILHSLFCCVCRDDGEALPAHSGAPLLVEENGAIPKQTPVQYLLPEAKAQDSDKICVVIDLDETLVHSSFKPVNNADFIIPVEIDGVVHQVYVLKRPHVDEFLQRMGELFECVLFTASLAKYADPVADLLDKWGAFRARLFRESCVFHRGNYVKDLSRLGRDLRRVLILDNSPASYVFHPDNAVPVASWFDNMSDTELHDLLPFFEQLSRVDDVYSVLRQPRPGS
The test is described as follows: CTDSP1 inhibitors, concentration-response, biochemical, absorbance readout, ultra-high-throughput screen actives (AID 540297). The format is functional.

Test [5] can be described thus: alpha-synuclein stem-loop luciferase translation blockers – H4 neuroglioma cells, luminescence, confirmation (AID 1988). Format: functional, cell-based.
Test [6] in a line: Luminescence Cell-Based Dose Response HTS to Identify Inhibitors of 5'UTR Stem-Loop Driven Prion Protein mRNA Translation in H4 Neuroglioblastoma Cells. [Related pubchem assays: 1827 (Project Summary), 1813 (Primary HTS)]. Format: functional.
The nature of test [7]: Luminescence Cell-Based Dose HTS Response to Identify Inhibitors of 5'UTR Stem-Loop Driven Prion Protein mRNA Translation in H4-C Neuroglioblastoma Cells. [Related pubchem assays (depositor defined):AID1814, AID1827]. The format is functional.
Test [8] in a line: Luminescence Cell-Based Dose Response HTS to Identify Activators of 5'UTR Stem-Loop Driven Prion Protein mRNA Translation in H4-C Neuroglioblastoma Cells. [Related pubchem assays: 1829 (Project Summary), 1814 (Primary HTS)]. The format is functional.
The nature of test [9]: Luminescence Cell-Based Dose Retest to Confirm Activators of 5'UTR Stem-Loop Driven Alpha-Synuclein mRNA Translation in H4 Neuroglioblastoma Cells. [Related pubchem assays (depositor defined):AID1813, AID1829]. The format is functional.
The nature of test [10]: Luminescence Cell-Based Dose Confirmation HTS to Identify Inhibitors of 5'UTR Stem-Loop Driven Alpha-Synuclein mRNA Translation in H4 Neuroglioblastoma Cells. [Related pubchem assays: 1827 (Project Summary), 1813 (Primary HTS)]. Format: functional.
Test [11] can be described thus: luciferase reporter signal suppression in cells – H4 neuroglioma cells, luminescence, dose response (AID 1990). The format is functional, cell-based.
Test [12] can be described thus: Luminescence Cell-Based Dose Response HTS to Identify Inhibitors of Luciferase Translation or Activity in H4-C Neuroglioblastoma Cells. [Related pubchem assays: 1813 (Primary HTS), 1827 (Project Summary)]. The format is functional.
Test [13] in a line: Luminescence Cell-Based Dose Response HTS to Identify Activators of Luciferase Translation or Activity in H4-C Neuroglioblastoma Cells. [Related pubchem assays: 1829 (Project Summary), 1814 (Primary HTS)]. The format is functional.
Test [14] can be described thus: Luminescence Cell-Based Dose Retest to Confirm Inhibitors of Cancer Stem Cells. [Related pubchem assays (depositor defined):AID2717, AID2721]. The note with it: Homo sapiens. Format: functional.
A short description of test [15]: toxicity toward cultured mammalian cells – cell-based, plate reader, cherry-pick samples, cytotoxicity control, dose response (AID 504397). Format: functional.
The target in another test is T3, CAAX prenyl protease 2 (Saccharomyces cerevisiae S288c, UniProt Q03530).
T3 sequence (Q03530 whole entry): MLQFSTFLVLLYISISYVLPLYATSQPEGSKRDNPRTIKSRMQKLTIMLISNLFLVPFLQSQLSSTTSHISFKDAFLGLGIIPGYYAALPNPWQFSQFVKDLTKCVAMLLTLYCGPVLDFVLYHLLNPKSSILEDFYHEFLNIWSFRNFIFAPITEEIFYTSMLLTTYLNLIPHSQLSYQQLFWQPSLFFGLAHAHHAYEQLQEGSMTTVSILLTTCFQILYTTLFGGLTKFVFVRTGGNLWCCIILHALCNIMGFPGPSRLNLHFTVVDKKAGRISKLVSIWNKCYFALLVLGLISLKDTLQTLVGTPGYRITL
The format is biochemical.

Another test deals with Hexokinase HKDC1 (Homo sapiens, UniProt Q2TB90). The test is described as follows: activation of HKDC1 glucose phosphorylation – biochemical, W721R variant, dose response (AID 504730). The format is functional.
Sequence of Hexokinase HKDC1 (Q2TB90 whole entry): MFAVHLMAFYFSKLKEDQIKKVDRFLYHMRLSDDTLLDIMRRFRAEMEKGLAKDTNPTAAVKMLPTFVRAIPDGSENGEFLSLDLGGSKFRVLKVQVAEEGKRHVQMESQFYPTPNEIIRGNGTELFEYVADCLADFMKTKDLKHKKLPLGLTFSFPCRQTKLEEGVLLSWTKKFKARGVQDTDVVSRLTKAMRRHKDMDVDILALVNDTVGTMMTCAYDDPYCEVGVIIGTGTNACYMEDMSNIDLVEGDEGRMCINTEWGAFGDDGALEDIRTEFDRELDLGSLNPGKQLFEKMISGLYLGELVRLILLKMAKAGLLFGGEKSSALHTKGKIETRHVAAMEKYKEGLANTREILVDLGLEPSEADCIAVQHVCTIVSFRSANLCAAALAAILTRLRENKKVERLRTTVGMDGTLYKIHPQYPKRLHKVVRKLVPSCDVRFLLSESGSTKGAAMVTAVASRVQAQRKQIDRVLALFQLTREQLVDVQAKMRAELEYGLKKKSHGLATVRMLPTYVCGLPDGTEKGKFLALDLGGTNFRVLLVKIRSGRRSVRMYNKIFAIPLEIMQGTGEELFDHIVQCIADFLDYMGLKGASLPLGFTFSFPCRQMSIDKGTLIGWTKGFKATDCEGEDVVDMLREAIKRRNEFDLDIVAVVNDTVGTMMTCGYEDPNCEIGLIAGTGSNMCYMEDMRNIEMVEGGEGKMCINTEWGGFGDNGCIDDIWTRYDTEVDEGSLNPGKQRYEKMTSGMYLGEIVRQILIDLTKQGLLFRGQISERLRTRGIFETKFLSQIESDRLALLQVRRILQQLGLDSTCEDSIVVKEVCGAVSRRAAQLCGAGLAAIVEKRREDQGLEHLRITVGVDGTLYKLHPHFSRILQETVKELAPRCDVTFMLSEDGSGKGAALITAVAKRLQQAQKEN
Test [16] in a line: viability loss in HeLa cells – cytotoxicity control for MgcRacGAP inhibitor project, dose response (AID 624300). The format is functional.
Test [17] addresses Luciferin 4-monooxygenase (Photinus pyralis, UniProt P08659). The test is described as follows: inhibition of purified Photinus pyralis luciferase – biochemical, luminescence, dose response (AID 1891).
A further test deals with Nonstructural protein 1 (Influenza A virus, UniProt Q194T2). The format is functional, Influenza A virus (A/California/07/2009(H1N1)).
Sequence of Nonstructural protein 1 (Q194T2 whole entry): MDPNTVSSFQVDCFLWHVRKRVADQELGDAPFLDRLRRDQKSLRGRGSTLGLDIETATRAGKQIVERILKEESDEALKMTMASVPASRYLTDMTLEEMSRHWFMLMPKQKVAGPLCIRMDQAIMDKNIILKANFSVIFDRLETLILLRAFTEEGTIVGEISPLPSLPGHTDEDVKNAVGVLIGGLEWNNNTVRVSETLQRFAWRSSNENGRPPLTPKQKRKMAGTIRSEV
The next test deals with Hexokinase-1 (Homo sapiens, UniProt P19367). The test is described as follows: HK1 enzyme activation by HKDC1 hits – biochemical, selectivity assay for HKDC1 activator project, dose response (AID 504762). The format is functional.
Sequence of Hexokinase-1 (P19367 whole entry): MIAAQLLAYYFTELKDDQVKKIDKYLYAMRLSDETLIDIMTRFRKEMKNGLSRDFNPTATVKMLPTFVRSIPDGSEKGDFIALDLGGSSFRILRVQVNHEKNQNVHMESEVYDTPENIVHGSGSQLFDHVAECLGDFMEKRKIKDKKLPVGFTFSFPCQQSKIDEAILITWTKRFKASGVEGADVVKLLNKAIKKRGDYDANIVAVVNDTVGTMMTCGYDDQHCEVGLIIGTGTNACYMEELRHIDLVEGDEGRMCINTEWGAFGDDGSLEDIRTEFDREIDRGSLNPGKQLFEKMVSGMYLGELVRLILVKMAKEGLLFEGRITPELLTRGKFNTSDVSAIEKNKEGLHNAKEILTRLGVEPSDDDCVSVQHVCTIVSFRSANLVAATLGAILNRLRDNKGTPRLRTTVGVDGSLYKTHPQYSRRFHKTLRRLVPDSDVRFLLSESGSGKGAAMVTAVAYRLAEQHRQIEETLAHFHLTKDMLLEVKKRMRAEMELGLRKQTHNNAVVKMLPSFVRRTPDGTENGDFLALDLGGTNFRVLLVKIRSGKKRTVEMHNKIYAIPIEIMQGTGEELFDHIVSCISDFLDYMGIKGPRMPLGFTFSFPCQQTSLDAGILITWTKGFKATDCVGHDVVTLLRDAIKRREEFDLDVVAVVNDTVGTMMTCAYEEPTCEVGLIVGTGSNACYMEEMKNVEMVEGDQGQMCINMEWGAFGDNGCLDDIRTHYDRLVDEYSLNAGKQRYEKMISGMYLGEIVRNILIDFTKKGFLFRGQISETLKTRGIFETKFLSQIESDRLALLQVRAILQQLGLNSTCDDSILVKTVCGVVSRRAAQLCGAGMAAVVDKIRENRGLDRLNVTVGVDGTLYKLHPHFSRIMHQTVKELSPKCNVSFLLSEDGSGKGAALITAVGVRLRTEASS
A short description of test [18]: Luminescence Cell-Based Dose Confirmation HTS to Identify Inhibitors of Platelet Dense Granule Release. [Related pubchem assays: 1663 (Primary HTS), 1678 (Summary of Project)]. Format: functional.
Test [19] deals with T4, Rac GTPase-activating protein 1 (Homo sapiens, UniProt Q9H0H5).
T4 sequence (Q9H0H5 whole entry): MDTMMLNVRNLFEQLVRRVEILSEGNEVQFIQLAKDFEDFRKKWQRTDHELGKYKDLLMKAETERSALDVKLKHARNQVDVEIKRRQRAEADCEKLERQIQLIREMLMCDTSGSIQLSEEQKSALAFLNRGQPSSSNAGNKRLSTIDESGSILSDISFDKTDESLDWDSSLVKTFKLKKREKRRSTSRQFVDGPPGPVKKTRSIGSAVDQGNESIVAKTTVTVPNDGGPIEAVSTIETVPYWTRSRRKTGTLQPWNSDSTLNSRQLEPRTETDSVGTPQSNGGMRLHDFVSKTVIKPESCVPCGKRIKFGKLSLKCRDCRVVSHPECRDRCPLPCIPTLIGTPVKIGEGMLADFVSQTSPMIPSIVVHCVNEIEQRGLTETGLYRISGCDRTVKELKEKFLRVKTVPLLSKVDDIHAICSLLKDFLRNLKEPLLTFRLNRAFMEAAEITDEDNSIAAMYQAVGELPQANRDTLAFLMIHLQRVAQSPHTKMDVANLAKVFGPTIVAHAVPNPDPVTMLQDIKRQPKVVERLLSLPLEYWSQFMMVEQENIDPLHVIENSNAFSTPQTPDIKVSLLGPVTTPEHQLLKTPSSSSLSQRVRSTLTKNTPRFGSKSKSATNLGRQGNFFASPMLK
The test is described as follows: blockers of MgcRacGAP-driven Rac1 GTP hydrolysis – biochemical, ADP Hunter fluorescence, primary and confirmatory, confirmation (AID 624330). Format: functional.

Activity calls are given as the source filed them.

Sequence of Luciferin 4-monooxygenase (P08659 whole entry): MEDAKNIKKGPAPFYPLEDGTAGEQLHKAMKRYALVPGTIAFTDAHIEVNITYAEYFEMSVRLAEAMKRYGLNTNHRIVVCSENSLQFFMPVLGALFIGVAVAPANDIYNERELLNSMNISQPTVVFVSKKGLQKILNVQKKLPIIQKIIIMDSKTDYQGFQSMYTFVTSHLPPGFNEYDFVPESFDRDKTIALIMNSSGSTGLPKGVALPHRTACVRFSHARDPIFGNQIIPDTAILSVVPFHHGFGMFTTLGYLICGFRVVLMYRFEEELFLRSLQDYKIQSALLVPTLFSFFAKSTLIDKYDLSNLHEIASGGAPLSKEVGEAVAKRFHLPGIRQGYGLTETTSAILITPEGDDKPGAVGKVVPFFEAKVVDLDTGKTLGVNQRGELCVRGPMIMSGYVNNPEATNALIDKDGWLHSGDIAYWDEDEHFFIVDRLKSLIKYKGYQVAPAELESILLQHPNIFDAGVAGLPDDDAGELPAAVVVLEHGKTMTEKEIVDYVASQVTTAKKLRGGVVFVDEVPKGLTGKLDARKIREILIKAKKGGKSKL

In general, EC50 refers to the midpoint of the concentration-response curve. Consider `O=C(NC1CCCCC1)c1cccc2c1C(=O)c1ccc(N3CCCC3)cc1S2(=O)=O`, for which, at Troponin, cardiac muscle, the EC50 is 6.65 µM (active).
The IC50 is the concentration that gives 50% inhibition. Take `C[N+]1(CC2COC(c3ccco3)O2)CCCCC1` (centres undefined): the EC50 in [1] was > 195 µM (not active). Besides, the values for the IC50 in [2], in [3] and in [4] were 3.34 µM (active), 3.15 µM (active) and 3.23 µM (active), respectively.
On to `COc1ccc(/C=N/NC(=O)c2cc3c(OC)ccc(OC)c3[nH]2)cc1O`, for which the EC50 in test [5] is 0.291 µM (active); in test [6] it was 13.3 µM (active); in test [7], 1.75 µM (active); in [8], 0.765 µM (inconclusive); in test [9], 29.5 µM (inconclusive); in test [10] it was 2.9 µM (active). The concentration giving a half-maximal response (EC50) in test [11] was 9.89 µM (active); in [12], 0.747 µM (active); in [13], 2.51 µM (inconclusive).
What is called AC50 is the concentration giving half of the maximal activity seen. Consider `Clc1cccc(CN2CCc3c([nH]c4ccccc34)C2)c1Cl`, for which the concentration at half-maximal activity (AC50) was 4.83 µM (active) in [14], 117 µM (active) in test [15] and 3.27 µM (active) at CAAX prenyl protease 2.
Usually CC50 stands for the concentration at which the toxic effect on the cells reaches its halfway point. On to `Cc1nonc1C(=O)N/N=C/c1ccc(O)cc1O`, for which the EC50 is > 80 µM (inactive) on Hexokinase HKDC1, 0.667 µM (active) in test [17], > 80 µM (inactive) on Hexokinase-1 and 0.136 µM (active) in [18]. For the same compound, the CC50 in test [16] was 100 µM (active). For the same compound, the figures for the half-inhibitory concentration (IC50) (on Nonstructural protein 1; in test [19]) were 4.75 µM (active) and 69.4 µM (active), respectively.
